Experiments:
hP2X2/3H = target: T1, hP2X2/3H (Homo sapiens, UniProt P56373+Q9UBL9); assay: Calcium uptake assay (P2X antagonist assay), P2X2/3 heteromer; format: cell-based; settings: Ca influx (calcium uptake assay), hP2X2/3H; read-out: IC50 hP2X2/3H
T1 construct: expressed in transfected cells; host or cells: e.g. HEK293 or 1321N1
T1 sequence (Q9UBL9 1-471): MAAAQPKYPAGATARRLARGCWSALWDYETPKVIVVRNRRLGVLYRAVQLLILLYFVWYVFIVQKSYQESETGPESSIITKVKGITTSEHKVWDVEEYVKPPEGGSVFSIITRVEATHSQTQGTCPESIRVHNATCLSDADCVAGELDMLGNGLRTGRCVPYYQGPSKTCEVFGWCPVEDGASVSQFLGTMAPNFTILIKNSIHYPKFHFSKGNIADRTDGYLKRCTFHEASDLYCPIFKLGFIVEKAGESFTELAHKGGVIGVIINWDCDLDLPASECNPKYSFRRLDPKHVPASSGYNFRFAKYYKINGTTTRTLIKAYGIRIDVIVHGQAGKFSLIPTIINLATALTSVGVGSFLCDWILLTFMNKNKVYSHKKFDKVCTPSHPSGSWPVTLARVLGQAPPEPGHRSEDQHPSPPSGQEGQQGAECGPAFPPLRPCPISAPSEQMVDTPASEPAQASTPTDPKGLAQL
T1 sequence (P56373 1-397): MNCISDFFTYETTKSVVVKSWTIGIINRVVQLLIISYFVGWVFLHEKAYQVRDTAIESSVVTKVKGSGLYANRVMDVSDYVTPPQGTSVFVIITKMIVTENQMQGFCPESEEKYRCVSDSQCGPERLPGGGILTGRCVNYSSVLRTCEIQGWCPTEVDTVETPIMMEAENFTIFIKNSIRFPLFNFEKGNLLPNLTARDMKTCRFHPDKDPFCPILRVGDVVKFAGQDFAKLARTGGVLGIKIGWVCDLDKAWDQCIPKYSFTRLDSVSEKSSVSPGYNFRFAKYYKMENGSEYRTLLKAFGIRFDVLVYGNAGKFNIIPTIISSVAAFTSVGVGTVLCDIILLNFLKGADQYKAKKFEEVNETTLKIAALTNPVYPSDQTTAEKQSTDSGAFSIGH
In short: (§1)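 Stably or transiently transfected HEK293 or 1321N1 cells; the heteromer is made by adding P2X3 to a P2X2-stable line, with heteromer function isolated pharmacologically. The peak-minus-baseline FLIPR calcium signal gives % inhibition and a 4-parameter-logistic IC50.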

hP2X3 = target: T2, hP2X3 (Homo sapiens, UniProt P56373); assay: Calcium uptake assay (P2X antagonist assay), P2X3 homomer; format: cell-based; settings: Ca influx (calcium uptake assay), hP2X3; read-out: IC50 hP2X3
T2 construct: expressed in transfected cells; host or cells: e.g. HEK293 or 1321N1
T2 sequence (P56373 1-397): T1 sequence (P56373 1-397)
In short: as §1

Cc1ccc(-c2cc(C(=O)N[C@H](C)c3cnc(C)nc3)cc(C(O)c3ccccn3)c2)c(C#N)c1 (stereo partly shown) [Compound 285]
IC50 (hP2X2/3H): < 100 nM
IC50 (hP2X3): < 100 nM

Cc1ccc(-c2cc(C(=O)N[C@H](C)c3cnc(C)nc3)cc(C(O)c3ccccn3)c2)nc1 (stereo partly shown) [Compound 286]
IC50 (hP2X2/3H): < 100 nM
IC50 (hP2X3): < 100 nM

Cc1ccc(-c2cc(C(=O)N[C@H](C)c3ccc(C)nc3)cc(C(O)c3ccccn3)c2)nc1 (stereo partly shown) [Compound 287]
IC50 (hP2X2/3H): < 100 nM
IC50 (hP2X3): < 100 nM

Cc1ccc(-c2cc(C(=O)N[C@@H](C)CO)cc(S(=O)(=O)C(C)C)c2)cc1 [Compound 288]
IC50 (hP2X2/3H): > 1000 nM
IC50 (hP2X3): < 100 nM

Cc1ccc(-c2cc(C(=O)N[C@H](C)c3ccc(C)nc3)cc(C(O)CO)c2)cc1 (stereo partly shown) [Compound 289]
IC50 (hP2X2/3H): < 100 nM
IC50 (hP2X3): < 100 nM

Cc1ccc(-c2cc(CO)cc(C(=O)N[C@H](C)c3ccc(C)nc3)c2)c(C#N)c1 [Compound 290, (R)-2′-Cyano-5-(hydroxymethyl)-4′-methyl-N-(1-(6-methylpyridin-3-yl)ethyl)biphenyl-3-carboxamide]
IC50 (hP2X2/3H): < 100 nM
IC50 (hP2X3): < 100 nM

Cc1ccc(-c2cc(C(=O)N[C@H](C)c3ccc(C)nc3)cc(C(O)c3nccs3)c2)nc1 (stereo partly shown) [Compound 291]
IC50 (hP2X2/3H): < 100 nM
IC50 (hP2X3): < 100 nM

Cc1ccc(-c2cc(C(=O)N[C@H](C)c3cnc(C)nc3)cc(C(O)c3nccs3)c2)nc1 (stereo partly shown) [Compound 292]
IC50 (hP2X2/3H): < 100 nM
IC50 (hP2X3): < 100 nM

Cc1ccc(-c2cc(C(=O)N[C@H](C)c3cnc(C)nc3)cc(C(O)c3nccs3)c2)c(C#N)c1 (stereo partly shown) [Compound 293]
IC50 (hP2X2/3H): < 100 nM
IC50 (hP2X3): < 100 nM

Cc1ccc(-c2cc(C(=O)N[C@H](C)c3ccc(C)nc3)cc(C(O)c3nccs3)c2)c(C#N)c1 (stereo partly shown) [Compound 294]
IC50 (hP2X2/3H): < 100 nM
IC50 (hP2X3): < 100 nM

Cc1ccc(-c2cc(C(=O)N[C@H](C)c3ccc(C)nc3)cc(C(O)C(F)(F)F)c2)c(C#N)c1 (stereo partly drawn) [Compound 295, 2′-Cyano-4′-methyl-N—((R)-1-(6-methylpyridin-3-yl)ethyl)-5-(2,2,2-trifluoro-1-hydroxyethyl)biphenyl-3-carboxamide]
IC50 (hP2X2/3H): < 100 nM
IC50 (hP2X3): < 100 nM

Cc1ccc(-c2cc(C(=O)NCc3ccc(C)nc3)cc(C(O)C(F)(F)F)c2)c(C#N)c1 (stereo not shown) [Compound 296]
IC50 (hP2X2/3H): < 100 nM
IC50 (hP2X3): < 100 nM

Cc1ccc(-c2cc(C(=O)NCc3ccc(C)nc3)cc(C(O)CO)c2)c(C#N)c1 (stereo not shown) [Compound 297, 2′-Cyano-5-(1,2-dihydroxyethyl)-4′-methyl-N-((6-methylpyridin-3-yl)methyl)biphenyl-3-carboxamide]
IC50 (hP2X2/3H): 100 to 500 nM
IC50 (hP2X3): < 100 nM

Cc1ccc(-c2cc(C(=O)N[C@H](C)c3ccc(C)nc3)cc(C(O)CO)c2)c(C#N)c1 (stereo partly shown) [Compound 298]
IC50 (hP2X2/3H): < 100 nM
IC50 (hP2X3): < 100 nM

COCC(C)Oc1cc(C(=O)N[C@H](C)c2ccc(C)nc2)cc(-c2ccc(C)cc2)c1 (stereo partly shown) [Compound 299]
IC50 (hP2X2/3H): < 100 nM
IC50 (hP2X3): < 100 nM

COCC(C)Oc1cc(C(=O)NCc2ccc(C)nc2)cc(-c2ccc(C)cc2)c1 (stereo not shown) [Compound 300]
IC50 (hP2X2/3H): < 100 nM
IC50 (hP2X3): < 100 nM

Cc1ccc(-c2cc(OCCO)cc(C(=O)NCc3ccc(C)nc3)c2)cc1 [Compound 301]
IC50 (hP2X2/3H): 100 to 500 nM
IC50 (hP2X3): < 100 nM

Cc1ccc(-c2cc(OCCO)cc(C(=O)N[C@H](C)c3ccc(C)nc3)c2)cc1 [Compound 302]
IC50 (hP2X2/3H): < 100 nM
IC50 (hP2X3): < 100 nM

Cc1ccc(-c2cc(CO)cc(C(=O)N[C@H](C)c3cnc(C)nc3)c2)c(C#N)c1 [Compound 303]
IC50 (hP2X2/3H): 100 to 500 nM
IC50 (hP2X3): < 100 nM

Cc1ccc(-c2cc(CO)cc(C(=O)NCc3cnc(C)nc3)c2)c(C#N)c1 [Compound 304]
IC50 (hP2X2/3H): 100 to 500 nM
IC50 (hP2X3): < 100 nM

Cc1ccc(-c2cc(OCCO)cc(C(=O)N[C@H](C)c3ccc(C)nc3)c2)c(C#N)c1 [Compound 305]
IC50 (hP2X2/3H): < 100 nM
IC50 (hP2X3): < 100 nM

Cc1ccc(-c2cc(CO)cc(C(=O)NCc3ccc(C)nc3)c2)c(C#N)c1 [Compound 306]
IC50 (hP2X2/3H): 100 to 500 nM
IC50 (hP2X3): < 100 nM

Cc1ccc(-c2cc(C(=O)NCc3cnc(C)nc3)cc(S(C)(=O)=O)c2)nc1 [Compound 307]
IC50 (hP2X2/3H): > 1000 nM
IC50 (hP2X3): < 100 nM

Source: patent US8946439B2, “Amide compounds, compositions and uses thereof” (Evotec AG, priority 2008, dated 2015)
